Experimental data as given in patent US20250214983A1, “1,3,4-OXADIAZOLE TRIAZOLE COMPOUNDS AS HISTONE DEACETYLASE 6 INHIBITOR, AND PHARMACEUTICAL COMPOSITION COMPRISING THE SAME” (Chong Kun Dang Pharmaceutical Corp., priority 2022, published 2025).

Experiments:
human recombinant HDAC6 = molecular target: T1, human recombinant HDAC6 (Homo sapiens, UniProt Q9UBN7); assay: HDAC6 enzyme activity inhibition (HDAC Fluorimetric Drug Discovery Kit); assay type: biochemical; conditions: HDAC1 versus HDAC6
T1 construct: purchased Calbiochem Inc. 382180
T1 sequence (Q9UBN7 1-1215): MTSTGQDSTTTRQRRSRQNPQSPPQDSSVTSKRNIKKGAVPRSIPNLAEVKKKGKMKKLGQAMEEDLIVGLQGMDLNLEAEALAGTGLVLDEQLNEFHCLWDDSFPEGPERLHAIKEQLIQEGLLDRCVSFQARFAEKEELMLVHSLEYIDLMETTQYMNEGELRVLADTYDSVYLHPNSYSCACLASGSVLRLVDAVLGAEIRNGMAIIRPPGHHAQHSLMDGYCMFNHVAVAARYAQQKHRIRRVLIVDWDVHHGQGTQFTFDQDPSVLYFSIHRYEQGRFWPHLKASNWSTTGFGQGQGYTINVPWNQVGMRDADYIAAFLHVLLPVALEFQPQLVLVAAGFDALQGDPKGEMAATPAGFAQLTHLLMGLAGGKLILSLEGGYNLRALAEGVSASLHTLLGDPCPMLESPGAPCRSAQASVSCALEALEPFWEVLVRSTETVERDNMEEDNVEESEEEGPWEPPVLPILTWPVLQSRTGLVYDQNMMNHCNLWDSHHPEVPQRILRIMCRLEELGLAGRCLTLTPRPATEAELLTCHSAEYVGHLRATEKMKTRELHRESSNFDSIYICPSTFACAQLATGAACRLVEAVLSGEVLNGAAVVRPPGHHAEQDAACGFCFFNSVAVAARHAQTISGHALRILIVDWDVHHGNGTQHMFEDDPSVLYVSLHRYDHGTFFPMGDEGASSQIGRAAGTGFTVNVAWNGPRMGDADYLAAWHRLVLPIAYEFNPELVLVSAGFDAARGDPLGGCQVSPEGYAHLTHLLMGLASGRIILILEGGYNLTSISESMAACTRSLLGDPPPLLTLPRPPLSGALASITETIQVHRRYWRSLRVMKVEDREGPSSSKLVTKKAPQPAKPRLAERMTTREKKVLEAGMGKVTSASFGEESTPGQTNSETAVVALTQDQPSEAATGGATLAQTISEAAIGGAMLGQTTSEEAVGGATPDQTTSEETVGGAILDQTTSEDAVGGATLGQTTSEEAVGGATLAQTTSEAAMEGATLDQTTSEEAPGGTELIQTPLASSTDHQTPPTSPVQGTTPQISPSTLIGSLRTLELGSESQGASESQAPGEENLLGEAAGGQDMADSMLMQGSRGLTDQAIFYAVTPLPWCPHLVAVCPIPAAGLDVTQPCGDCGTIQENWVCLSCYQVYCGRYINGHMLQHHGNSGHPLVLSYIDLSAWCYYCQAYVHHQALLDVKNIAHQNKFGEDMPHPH
Procedure: (§1) An experiment was conducted to identify the selectivity of the 1,3,4-oxadiazole triazole compound of the present invention to HDAC6 through an experiment on HDAC1 and HDAC6 enzyme activity inhibition.
(§2) The HDAC enzyme activity was measured with HDAC Fluorimetric Drug Discovery Kit (BML-AK511, 516) of Enzo Life Science, Inc. For the test on the HDAC1 enzyme activity, human recombinant HDAC1 (BML-SE456) was used as an enzyme source and Fluor de Lys®-“SIRT1 (BNL-KI177)” was used as a substrate. A 5-fold dilution of the compound was divided into a 96-well plate, after which 0.3 μg of the enzyme and 10 μM of the substrate were inserted into each well and subjected to reaction at 30° C. for 60 minutes, such that Fluor de Lys® Developer II (BML-KI176) was inserted thereinto and subjected to reaction for 30 minutes and finished. After that, a fluorescence value (Ex 360, Em 460) was measured with a multi-plate reader (Flexstation 3, Molecular Device). An experiment on HDAC6 enzyme was conducted in accordance with the same protocol as in the HDAC1 enzyme activity test method by using human recombinant HDAC6 (382180) of Calbiochem Inc. For final result values, each IC50 value was calculated with GraphPad Prism 4.0 program.

human recombinant HDAC1 = molecular target: T2, human recombinant HDAC1 (Homo sapiens, UniProt Q13547); assay: HDAC1 enzyme activity inhibition (HDAC Fluorimetric Drug Discovery Kit); assay type: biochemical; conditions: human recombinant HDAC1, Fluor de Lys substrate 10 μM, 30° C. 60 minutes
T2 construct: purchased Enzo Life Science, Inc. BML-SE456
Procedure: as §1, §2

T2 sequence (Q13547 whole entry): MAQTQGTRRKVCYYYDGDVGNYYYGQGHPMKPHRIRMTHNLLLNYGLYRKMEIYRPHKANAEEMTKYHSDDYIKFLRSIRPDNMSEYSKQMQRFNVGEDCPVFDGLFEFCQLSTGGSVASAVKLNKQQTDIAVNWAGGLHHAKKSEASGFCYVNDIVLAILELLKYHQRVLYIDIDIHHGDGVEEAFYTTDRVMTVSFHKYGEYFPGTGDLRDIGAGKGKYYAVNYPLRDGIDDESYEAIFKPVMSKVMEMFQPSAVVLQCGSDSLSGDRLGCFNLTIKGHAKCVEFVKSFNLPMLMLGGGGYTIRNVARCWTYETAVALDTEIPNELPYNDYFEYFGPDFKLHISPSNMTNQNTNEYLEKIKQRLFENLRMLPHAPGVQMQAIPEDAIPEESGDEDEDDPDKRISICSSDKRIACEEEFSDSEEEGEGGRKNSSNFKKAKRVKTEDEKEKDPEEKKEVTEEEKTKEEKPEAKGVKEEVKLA

With `FC(F)c1nnc(-c2ccc(Cn3cc(-c4ccc(CN5CCC5)cn4)nn3)nc2)o1` [Compound 2, 2-(6-((4-(5-(azetidin-1-ylmethyl)pyridin-2-yl)-1H-1,2,3-triazol-1-yl)methyl)pyridin-3-yl)-5-(difluoromethyl)-1,3,4-oxadiazole] the “HDAC6 selectivity (fold)” value (human recombinant HDAC6) was 2252 fold and the IC50 (human recombinant HDAC1) was over 50 µM.

With `FC(F)c1nnc(-c2ccc(Cn3cc(-c4ccc(CN5CCCC5)cn4)nn3)nc2)o1` [Compound 3, 2-(difluoromethyl)-5-(6-((4-(5-(pyrrolidin-1-ylmethyl)pyridin-2-yl)-1H-1,2,3-triazol-1-yl)methyl)pyridin-3-yl)-1,3,4-oxadiazole] the “HDAC6 selectivity (fold)” value (human recombinant HDAC6) was 1712 fold and the IC50 (human recombinant HDAC1) was over 50 µM.

With `CC1CCN(Cc2ccc(-c3cn(Cc4ccc(-c5nnc(C(F)F)o5)cn4)nn3)nc2)CC1` [Compound 4, 2-(difluoromethyl)-5-(6-((4-(5-((4-methylpiperidin-1-yl)methyl)pyridin-2-yl)-1H-1,2,3-triazol-1-yl)methyl)pyridin-3-yl)-1,3,4-oxadiazole] the “HDAC6 selectivity (fold)” value (human recombinant HDAC6) was 1428 fold and the IC50 (human recombinant HDAC1) was over 50 µM.

With `FC(F)c1nnc(-c2ccc(Cn3cc(-c4ccc(CN5CC[C@@H](F)C5)nc4)nn3)nc2)o1` [Compound 5, (R)-2-(difluoromethyl)-5-(6-((4-(6-((3-fluoropyrrolidin-1-yl)methyl)pyridin-3-yl)-1H-1,2,3-triazol-1-yl)methyl)pyridin-3-yl)-1,3,4-oxadiazole] the “HDAC6 selectivity (fold)” value (human recombinant HDAC6) was 1547 fold and the IC50 (human recombinant HDAC1) was over 50 µM.

For `CC1(C)CCN(Cc2ccc(-c3cn(Cc4ccc(-c5nnc(C(F)F)o5)cn4)nn3)cn2)CC1` [Compound 6, 2-(difluoromethyl)-5-(6-((4-(6-((4,4-dimethylpiperidin-1-yl)methyl)pyridin-3-yl)-1H-1,2,3-triazol-1-yl)methyl)pyridin-3-yl)-1,3,4-oxadiazole], the “HDAC6 selectivity (fold)” value (human recombinant HDAC6) was 1730 fold and the IC50 (human recombinant HDAC1) was over 50 µM.

For `FC(F)c1nnc(-c2ccc(Cn3cc(-c4ccc(CN5CC[C@H](F)C5)s4)nn3)nc2)o1` [Compound 7, (S)-2-(difluoromethyl)-5-(6-((4-(5-((3-fluoropyrrolidin-1-yl)methyl)thiophen-2-yl)-1H-1,2,3-triazol-1-yl)methyl)pyridin-3-yl)-1,3,4-oxadiazole], the “HDAC6 selectivity (fold)” value (human recombinant HDAC6) was 1253 fold and the IC50 (human recombinant HDAC1) was over 50 µM.

`FC(F)c1nnc(-c2ccc(Cn3cc(-c4ccc(CN5CC[C@@H](F)C5)s4)nn3)nc2)o1` [Compound 8, (R)-2-(difluoromethyl)-5-(6-((4-(5-((3-fluoropyrrolidin-1-yl)methyl)thiophen-2-yl)-1H-1,2,3-triazol-1-yl)methyl)pyridin-3-yl)-1,3,4-oxadiazole] was tested, and the “HDAC6 selectivity (fold)” value (human recombinant HDAC6) was 1048 fold and the IC50 (human recombinant HDAC1) was over 50 µM.

With `CN(C)Cc1cc(-c2cn(Cc3ccc(-c4nnc(C(F)F)o4)cn3)nn2)cs1` [Compound 11, 1-(4-(1-((5-(5-(difluoromethyl)-1,3,4-oxadiazol-2-yl)pyridin-2-yl)methyl)-1H-1,2,3-triazol-4-yl)thiophen-2-yl)-N,N-dimethylmethanamine] the “HDAC6 selectivity (fold)” value (human recombinant HDAC6) was 1577 fold and the IC50 (human recombinant HDAC1) was over 50 µM.

In the case of `FC(F)c1nnc(-c2ccc(Cn3cc(-c4csc(CN5CC[C@H](F)C5)c4)nn3)nc2)o1` [Compound 13, (S)-2-(difluoromethyl)-5-(6-((4-(5-((3-fluoropyrrolidin-1-yl)methyl)thiophen-3-yl)-1H-1,2,3-triazol-1-yl)methyl)pyridin-3-yl)-1,3,4-oxadiazole], the “HDAC6 selectivity (fold)” value (human recombinant HDAC6) is reported as 1893 fold and the IC50 (human recombinant HDAC1) is reported as over 50 µM.

With `FC(F)c1nnc(-c2ccc(Cn3cc(-c4csc(CN5CC[C@@H](F)C5)c4)nn3)nc2)o1` [Compound 14, (R)-2-(difluoromethyl)-5-(6-((4-(5-((3-fluoropyrrolidin-1-yl)methyl)thiophen-3-yl)-1H-1,2,3-triazol-1-yl)methyl)pyridin-3-yl)-1,3,4-oxadiazole] the “HDAC6 selectivity (fold)” value (human recombinant HDAC6) was 1811 fold and the IC50 (human recombinant HDAC1) was over 50 µM.

For `FC(F)c1nnc(-c2ccc(Cn3cc(-c4csc(CN5CCC(F)(F)CC5)c4)nn3)nc2)o1` [Compound 16, 2-(difluoromethyl)-5-(6-((4-(5-((4,4-difluoropiperidin-1-yl)methyl)thiophen-3-yl)-1H-1,2,3-triazol-1-yl)methyl)pyridin-3-yl)-1,3,4-oxadiazole], the “HDAC6 selectivity (fold)” value (human recombinant HDAC6) was 1237 fold and the IC50 (human recombinant HDAC1) was over 50 µM.

With `CC1(C)CCN(Cc2ccc(-c3cn(Cc4ccc(-c5nnc(C(F)F)o5)cn4)nn3)nc2)CC1` [Compound 17, 2-(difluoromethyl)-5-(6-((4-(5-((4,4-dimethylpiperidin-1-yl)methyl)pyridin-2-yl)-1H-1,2,3-triazol-1-yl)methyl)pyridin-3-yl)-1,3,4-oxadiazole] the “HDAC6 selectivity (fold)” value (human recombinant HDAC6) was 1466 fold and the IC50 (human recombinant HDAC1) was over 50 µM.

With `Fc1ccc(CN2CCCCC2)cc1-c1cn(Cc2ccc(-c3nnc(C(F)F)o3)cn2)nn1` [Compound 18, 2-(difluoromethyl)-5-(6-((4-(2-fluoro-5-(piperidin-1-ylmethyl)phenyl)-1H-1,2,3-triazol-1-yl)methyl)pyridin-3-yl)-1,3,4-oxadiazole] the “HDAC6 selectivity (fold)” value (human recombinant HDAC6) was 1845 fold and the IC50 (human recombinant HDAC1) was over 50 µM.

In the case of `CC1CCN(Cc2ccc(F)c(-c3cn(Cc4ccc(-c5nnc(C(F)F)o5)cn4)nn3)c2)CC1` [Compound 19, 2-(difluoromethyl)-5-(6-((4-(2-fluoro-5-((4-methylpiperidin-1-yl)methyl)phenyl)-1H-1,2,3-triazol-1-yl)methyl)pyridin-3-yl)-1,3,4-oxadiazole], the “HDAC6 selectivity (fold)” value (human recombinant HDAC6) is reported as 1492 fold and the IC50 (human recombinant HDAC1) is reported as over 50 µM.

`CN(C)Cc1ccc(F)c(-c2cn(Cc3ccc(-c4nnc(C(F)F)o4)cn3)nn2)c1` [Compound 20, 1-(3-(1-((5-(5-(difluoromethyl)-1,3,4-oxadiazol-2-yl)pyridin-2-yl)methyl)-1H-1,2,3-triazol-4-yl)-4-fluorophenyl)-N,N-dimethylmethanamine] was tested, and the “HDAC6 selectivity (fold)” value (human recombinant HDAC6) was 1798 fold and the IC50 (human recombinant HDAC1) was over 50 µM.

`Fc1ccc(-c2cn(Cc3ccc(-c4nnc(C(F)F)o4)cn3)nn2)cc1CN1CCCC1` [Compound 22, 2-(difluoromethyl)-5-(6-((4-(4-fluoro-3-(pyrrolidin-1-ylmethyl)phenyl)-1H-1,2,3-triazol-1-yl)methyl)pyridin-3-yl)-1,3,4-oxadiazole] was tested, and the “HDAC6 selectivity (fold)” value (human recombinant HDAC6) was 3401 fold and the IC50 (human recombinant HDAC1) was over 50 µM.

`CN(C)Cc1cc(-c2cn(Cc3ccc(-c4nnc(C(F)F)o4)cn3)nn2)ccc1F` [Compound 23, 1-(5-(1-((5-(5-(difluoromethyl)-1,3,4-oxadiazol-2-yl)pyridin-2-yl)methyl)-1H-1,2,3-triazol-4-yl)-2-fluorophenyl)-N,N-dimethylmethanamine] was tested, and the “HDAC6 selectivity (fold)” value (human recombinant HDAC6) was 2702 fold and the IC50 (human recombinant HDAC1) was over 50 µM.

For `Fc1ccc(-c2cn(Cc3ccc(-c4nnc(C(F)F)o4)cn3)nn2)cc1CN1CCCCC1` [Compound 24, 2-(difluoromethyl)-5-(6-((4-(4-fluoro-3-(piperidin-1-ylmethyl)phenyl)-1H-1,2,3-triazol-1-yl)methyl)pyridin-3-yl)-1,3,4-oxadiazole], the “HDAC6 selectivity (fold)” value (human recombinant HDAC6) was 2577 fold and the IC50 (human recombinant HDAC1) was over 50 µM.

In the case of `CC1CCN(Cc2cc(-c3cn(Cc4ccc(-c5nnc(C(F)F)o5)cn4)nn3)ccc2F)CC1` [Compound 25, 2-(difluoromethyl)-5-(6-((4-(4-fluoro-3-((4-methylpiperidin-1-yl)methyl)phenyl)-1H-1,2,3-triazol-1-yl)methyl)pyridin-3-yl)-1,3,4-oxadiazole], the “HDAC6 selectivity (fold)” value (human recombinant HDAC6) is reported as 2890 fold and the IC50 (human recombinant HDAC1) is reported as over 50 µM.
